In patent US10774071B2, “PD-1/PD-L1 inhibitors” (Gilead Sciences, Inc., priority 2018, dated 2020):
Like-named read-outs stand apart in the source and are kept apart here.

Key:
PD-1/PD-L1 = PD-1/PD-L1 (Homo sapiens (Human), UniProt Q9NZQ7); test: PD-1/PD-L1 biochemical protein-protein interaction assay (ALPHA); type: binding; conditions: read-out: IC50 PD-L1-PD1
PD-L1 = PD-L1 (Homo sapiens (Human), UniProt Q9NZQ7); test: PD-L1/PD-L1 dimerization biochemical protein-protein interaction assay (ALPHA); type: binding; conditions: read-out: AC50 PDL1 Dimer 1 nM
Sequence of PD-L1 (Q9NZQ7 19-238): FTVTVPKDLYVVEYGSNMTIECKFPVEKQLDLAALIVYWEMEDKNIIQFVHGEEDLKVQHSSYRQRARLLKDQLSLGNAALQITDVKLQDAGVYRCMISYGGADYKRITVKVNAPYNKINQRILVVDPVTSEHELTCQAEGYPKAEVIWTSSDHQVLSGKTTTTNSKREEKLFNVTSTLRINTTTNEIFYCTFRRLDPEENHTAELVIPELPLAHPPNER
Sequence of PD-L1 (Q9NZQ7 19-238): as above

[1] = 0.3 nM His tagged PD-L1, 2.5 nM biotinylated Fc-PD-1, Table 3B
[2] = 0.5 nM His tagged PD-L1 and 0.5 nM FLAG tagged PD-L1, Table 4B
[3] = 0.3 nM His tagged PD-L1, 2.5 nM biotinylated Fc-PD-1, readings of 0.064 nM are equal to or less than 0.064 nM
[4] = 0.5 nM His tagged PD-L1 and 0.5 nM FLAG tagged PD-L1, Table 4A

Sequence of PD-1/PD-L1 (Q9NZQ7 19-238): as above

## COc1nc(-c2cccc(-c3cccc4c3CC[C@@H]4Oc3nc(OC)c(CNC(C)(C)C(=O)O)cc3C(F)(F)F)c2Cl)ccc1CNC[C@@H]1CCC(=O)N1 [B-12]
PD-1/PD-L1; [1]
  IC50: 0.064 nM
PD-L1; [2]
  AC50: 1.12 nM

## COc1nc(-c2cccc(-c3cccc4c3CC[C@@H]4Oc3nc(OC)c(CN[C@H]4C[C@](C)(O)C4)cc3C(F)(F)F)c2Cl)ccc1CNC[C@@H]1CCC(=O)N1 [B-263]
PD-1/PD-L1; [1]
  IC50: 0.064 nM
PD-L1; [2]
  AC50: 4.94 nM

## COc1nc(-c2cccc(-c3cccc4c3CC[C@@H]4Oc3nc(OC)c(CN4CC5CC(C(=O)O)C4C5)cc3Cl)c2Cl)ccc1CNC[C@@H]1CCC(=O)N1 (some centres unmarked) [B-184]
PD-1/PD-L1; [1]
  IC50: 0.064 nM
PD-L1; [2]
  AC50: 19.8 nM

## COc1nc(-c2cccc(-c3cccc4c3CC[C@@H]4Oc3nc(OC)c(CN[C@@H](C)C(=O)O)cc3C(F)(F)F)c2Cl)ccc1CN[C@H]1C[C@](C)(O)C1 [B-215]
PD-1/PD-L1; [1]
  IC50: 0.064 nM
PD-L1; [2]
  AC50: 8.42 nM

## COc1nc(O[C@H]2CCc3c(-c4cccc(-c5ccc(CNC[C@@H]6CCC(=O)N6)c(OC)c5F)c4Cl)cccc32)c(Cl)cc1CN1CC[C@@H](C(=O)O)C1 [B-143]
PD-1/PD-L1; [1]
  IC50: 0.064 nM
PD-L1; [2]
  AC50: 42.1 nM

## COc1nc(-c2cccc(-c3cccc4c3CC[C@@H]4Nc3nc(OC)c(CNCCC(=O)O)nc3C(F)(F)F)c2Cl)ccc1CN[C@H]1C[C@](C)(O)C1 [A-93]
PD-1/PD-L1; [3]
  IC50: ≤ 0.064 nM
PD-L1; [4]
  AC50: 83 nM

## COc1nc(-c2cccc(-c3cccc4c3CC[C@@H]4Nc3nc(OC)c(CN[C@H](C(=O)O)C(C)C)nc3C(F)(F)F)c2Cl)ccc1CNC[C@@H]1CCC(=O)N1 [A-105]
PD-1/PD-L1; [3]
  IC50: ≤ 0.064 nM
PD-L1; [4]
  AC50: 40.6 nM

## COc1nc(-c2cccc(-c3cccc4c3CC[C@@H]4Oc3nc(OC)c(CN4C[C@@H](C)[C@H](C(=O)O)C4)cc3Cl)c2Cl)ccc1CNC[C@@H]1CCC(=O)N1 [B-107]
PD-1/PD-L1; [1]
  IC50: 0.064 nM
PD-L1; [2]
  AC50: 20.1 nM

## COc1nc(O[C@H]2CCc3c(-c4cccc(-c5ccc(CNC[C@@H]6CCC(=O)N6)c(OCC#N)n5)c4Cl)cccc32)c(C(F)(F)F)cc1CN1CC2(C(=O)O)CCC1CC2 [B-126]
PD-1/PD-L1; [1]
  IC50: 0.064 nM
PD-L1; [2]
  AC50: 3.35 nM

## COc1nc(-c2cccc(-c3cccc4c3CC[C@@H]4Oc3nc(OC)c(CN4CC(C(=O)O)C5(CCOC5)C4)cc3Cl)c2Cl)ccc1CNC[C@@H]1CCC(=O)N1 (some centres unmarked) [B-70]
PD-1/PD-L1; [1]
  IC50: 0.064 nM
PD-L1; [2]
  AC50: 31.9 nM

## CC[C@H](NCc1cc(C(F)(F)F)c(O[C@H]2CCc3c(-c4cccc(-c5ccc(CNC[C@@H]6CCC(=O)N6)c(OC)n5)c4Cl)cccc32)nc1OC)C(=O)O [B-269]
PD-1/PD-L1; [1]
  IC50: 0.064 nM
PD-L1; [2]
  AC50: 6.13 nM

## COc1nc(-c2cccc(-c3cccc4c3CC[C@@H]4Oc3nc(OC)c(CN4CC(C(=O)N=S(C)(=O)NC(C)=O)C4)cc3Cl)c2Cl)ccc1CNC[C@@H]1CCC(=O)N1 (some centres unmarked) [B-159]
PD-1/PD-L1; [1]
  IC50: 0.064 nM
PD-L1; [2]
  AC50: 24.9 nM

## COc1nc(-c2cccc(-c3cccc4c3CC[C@@H]4Oc3nc(OC)c(CN4CC[C@@H](C(=O)N=S(C)(=O)NC(=O)C(F)(F)F)C4)cc3Cl)c2Cl)ccc1CNC[C@@H]1CCC(=O)N1 (some centres unmarked) [B-162]
PD-1/PD-L1; [1]
  IC50: 0.082 nM
PD-L1; [2]
  AC50: 134 nM

## COc1cc(-c2cccc(-c3cccc4c3CC[C@@H]4Oc3nc(OC)c(CN4CC(C)(C(=O)O)C4)cc3C(F)(F)F)c2Cl)ccc1CNC[C@@H]1CCC(=O)N1 [B-141]
PD-1/PD-L1; [1]
  IC50: 0.064 nM
PD-L1; [2]
  AC50: 5.83 nM

## COc1nc(-c2cccc(-c3cccc4c3CC[C@@H]4Oc3nc(OC)c(CN4CC5(C(=O)O)CCC4CC5)cc3C(F)(F)F)c2Cl)ccc1CNC[C@@H]1CCC(=O)N1 [B-61]
PD-1/PD-L1; [1]
  IC50: 0.064 nM
PD-L1; [2]
  AC50: 6.22 nM

## COc1nc(-c2cccc(-c3cccc4c3CC[C@@H]4Oc3nc(OC)c(CNCC(=O)N(C)C)cc3C(F)(F)F)c2Cl)ccc1CNC[C@@H]1CCC(=O)N1 [B-248]
PD-1/PD-L1; [1]
  IC50: 0.097 nM
PD-L1; [2]
  AC50: 15.9 nM

## COc1cc(-c2cccc(-c3cccc4c3CC[C@@H]4Oc3nc(OC)c(CNC4(C(=O)O)CC4)cc3Cl)c2Cl)cc(F)c1CNC[C@@H]1CCC(=O)N1 [B-128]
PD-1/PD-L1; [1]
  IC50: 0.064 nM
PD-L1; [2]
  AC50: 13.5 nM

## COc1nc(-c2cccc(-c3cccc4c3CC[C@@H]4Nc3nc(OC)c(CN4CC[C@@H](C(=O)O)C4)nc3C(F)(F)F)c2Cl)ccc1CNC[C@@H]1CCC(=O)N1 [A-19]
PD-1/PD-L1; [3]
  IC50: ≤ 0.064 nM
PD-L1; [4]
  AC50: 26.1 nM

## COc1nc(-c2cccc(-c3cccc4c3CC[C@@H]4Oc3nc(OC)c(CN4CCC5CC4(C(=O)O)C5)cc3C(F)(F)F)c2Cl)ccc1CNC[C@@H]1CCC(=O)N1 [B-233]
PD-1/PD-L1; [1]
  IC50: 0.064 nM
PD-L1; [2]
  AC50: 0.518 nM

## COc1nc(-c2cccc(-c3cccc4c3CC[C@@H]4Oc3nc(OC)c(CN4CC[C@@H](C(=O)O)C4)nc3Br)c2Cl)cnc1CNC[C@@H]1CCC(=O)N1 [B-37]
PD-1/PD-L1; [1]
  IC50: 0.064 nM
PD-L1; [2]
  AC50: 28 nM

## COc1nc(-c2cccc(-c3cccc4c3CC[C@@H]4Nc3nc(OC)c(CN4C5CCC4(C(=O)O)CC5)nc3C(F)(F)F)c2Cl)ccc1CNC[C@@H]1CCC(=O)N1 [A-69]
PD-1/PD-L1; [3]
  IC50: ≤ 0.064 nM
PD-L1; [4]
  AC50: 5.27 nM

## COc1nc(-c2cccc(-c3cccc4c3CC[C@@H]4Oc3nc(OC)c(CN[C@H](C)C(=O)O)cc3C)c2Cl)ccc1CNC[C@@H]1CCC(=O)N1 [B-242]
PD-1/PD-L1; [1]
  IC50: 0.064 nM
PD-L1; [2]
  AC50: 18.9 nM

## COC[C@H](NCc1nc(C(F)(F)F)c(N[C@H]2CCc3c(-c4cccc(-c5ccc(CNC[C@@H]6CCC(=O)N6)c(OC)n5)c4Cl)cccc32)nc1OC)C(=O)O [A-100]
PD-1/PD-L1; [3]
  IC50: ≤ 0.064 nM
PD-L1; [4]
  AC50: 7.11 nM

## COc1nc(-c2cccc(-c3cccc4c3CC[C@@H]4Nc3nc(OC)c(CN4CC(C)(C(=O)O)C4)cc3C(F)(F)F)c2Cl)ccc1CNC[C@@H]1CCC(=O)N1 [A-53]
PD-1/PD-L1; [3]
  IC50: ≤ 0.064 nM
PD-L1; [4]
  AC50: 16.2 nM

## COc1cc(N[C@H]2CCc3c(-c4cccc(-c5ccc(CNC[C@@H]6CCC(=O)N6)c(OC)n5)c4Cl)cccc32)c(C(F)(F)F)nc1CN [A-44]
PD-1/PD-L1; [3]
  IC50: ≤ 0.064 nM
PD-L1; [4]
  AC50: 10.6 nM

## COc1nc(-c2cccc(-c3cccc4c3CC[C@@H]4Nc3nc(OC)c(CN4CC(C)(O)C4)nc3C(F)(F)F)c2Cl)ccc1CN1CC[C@@H](C(=O)O)C1 [A-71]
PD-1/PD-L1; [3]
  IC50: ≤ 0.064 nM
PD-L1; [4]
  AC50: 52.4 nM

## COc1nc(-c2cccc(-c3cccc4c3CC[C@@H]4Oc3nc(OC)c(CNCCC(=O)O)cc3Cl)c2Cl)ccc1CNC[C@@H]1CCC(=O)N1 [B-27]
PD-1/PD-L1; [1]
  IC50: 0.064 nM
PD-L1; [2]
  AC50: 11.2 nM

## COc1nc(-c2cccc(-c3cccc4c3CC[C@@H]4Oc3nc(OC)c(CN[C@H](C(=O)O)C(C)C)cc3C(F)(F)F)c2Cl)ccc1CN[C@H]1C[C@](C)(O)C1 [B-212]
PD-1/PD-L1; [1]
  IC50: 0.064 nM
PD-L1; [2]
  AC50: 17.5 nM

## COc1nc(-c2cccc(-c3cccc4c3CC[C@@H]4Oc3nc(OC)c(CNC4(C(=O)O)CC4)nc3C(F)(F)F)c2Cl)ccc1CNC[C@@H]1CCC(=O)N1 [B-247]
PD-1/PD-L1; [1]
  IC50: 0.064 nM
PD-L1; [2]
  AC50: 10.4 nM

## COc1nc(-c2cccc(-c3cccc4c3CC[C@@H]4Oc3nc(OC)c(CN4CC5(C(=O)O)CCC4CC5)cc3Cl)c2C)ccc1CNC[C@@H]1CCC(=O)N1 [B-77]
PD-1/PD-L1; [1]
  IC50: 0.064 nM
PD-L1; [2]
  AC50: 60.4 nM

## COc1nc(-c2cccc(-c3cccc4c3CC[C@@H]4Nc3nc(OC)c(CN[C@@H](C)C(=O)O)nc3C(F)(F)F)c2Cl)ccc1CNC[C@H]1C[C@H](O)C1 [A-48]
PD-1/PD-L1; [3]
  IC50: ≤ 0.064 nM
PD-L1; [4]
  AC50: 13.5 nM

## COc1nc(-c2cccc(-c3cccc4c3CC[C@@H]4Oc3nc(OC)c(CN4CC5(C(=O)O)CCC4CC5)cc3Cl)c2Cl)ccc1CN[C@@H]1CCC[C@@H]1O [B-52]
PD-1/PD-L1; [1]
  IC50: 0.095 nM
PD-L1; [2]
  AC50: 46.4 nM

## COc1nc(-c2cccc(-c3cccc4c3CC[C@@H]4Oc3nc(OC)c(CN4[C@H](C(=O)O)C[C@@H]5C[C@@H]54)cc3C(F)(F)F)c2Cl)ccc1CNC[C@@H]1CCC(=O)N1 [B-137]
PD-1/PD-L1; [1]
  IC50: 0.064 nM
PD-L1; [2]
  AC50: 6.19 nM

## COc1cc(-c2cccc(-c3cccc4c3CC[C@@H]4Nc3nc(OC)c(CN4CC[C@@H](C(=O)O)C4)nc3C(F)(F)F)c2Cl)cc(F)c1CNC[C@@H]1CCC(=O)N1 [A-31]
PD-1/PD-L1; [3]
  IC50: ≤ 0.064 nM
PD-L1; [4]
  AC50: 6.84 nM

## COc1nc(-c2cccc(-c3cccc4c3CC[C@@H]4Oc3nc(OC)c(CN4CC[C@@H](C(=O)O)C4)cc3Cl)c2Cl)ccc1CN1CC(C)(O)C1 [B-85]
PD-1/PD-L1; [1]
  IC50: 0.064 nM
PD-L1; [2]
  AC50: 50.3 nM

## COc1cc(-c2cccc(-c3cccc4c3CC[C@@H]4Oc3nc(OC)c(CN4CC5(C(=O)O)CCC4CC5)cc3C(F)(F)F)c2Cl)ccc1CNC[C@@H]1CCC(=O)N1 [B-140]
PD-1/PD-L1; [1]
  IC50: 0.064 nM
PD-L1; [2]
  AC50: 2.28 nM

## COc1nc(O[C@H]2CCc3c(-c4cccc(-c5cnc(CNC[C@@H]6CCC(=O)N6)cn5)c4Cl)cccc32)c(Cl)cc1CN1CC[C@@H](C(=O)O)C1 [B-97]
PD-1/PD-L1; [1]
  IC50: 0.064 nM
PD-L1; [2]
  AC50: 66.4 nM

## COc1cc(O[C@H]2CCc3c(-c4cccc(-c5ccc(CNC[C@@H]6CCC(=O)N6)c(OC)n5)c4Cl)cccc32)c(C(F)(F)F)cc1CNCC(C)(C)C(=O)O [B-221]
PD-1/PD-L1; [1]
  IC50: 0.064 nM
PD-L1; [2]
  AC50: 17.5 nM

## COc1cc(-c2cccc(-c3cccc4c3CC[C@@H]4Oc3nc(OC)c(CNC4(C(=O)O)CC4)cc3C(F)(F)F)c2Cl)ccc1CNC[C@@H]1CCC(=O)N1 [B-122]
PD-1/PD-L1; [1]
  IC50: 0.064 nM
PD-L1; [2]
  AC50: 2.65 nM

## COc1nc(-c2cccc(-c3cccc4c3CC[C@@H]4Oc3nc(OC)c(C(C)NCCC(=O)O)cc3C(F)(F)F)c2Cl)ccc1CNC[C@@H]1CCC(=O)N1 (some centres unmarked) [B-120]
PD-1/PD-L1; [1]
  IC50: 0.064 nM
PD-L1; [2]
  AC50: 18.2 nM
